The source of these data is US11352334B2, “3-(5-chloro-2-oxobenzo[d]oxazol-3(2H)-yl) propanoic acid derivatives as KMO inhibitors” (THE UNIVERSITY COURT OF THE UNIVERSITY OF EDINBURGH, priority 2013, dated 2022).

This experiment addresses T1, human KMO (Homo sapiens, UniProt O15229).
T1 construct: Full length human KMO was amplified by PCR from pcDNA5/FRT/V5-His-TOPO/hKMO; made in house; host or cells: Spodoptera frugiperda Sf9 cells (baculovirus); purified membrane fraction used
Description: KMO MS Rapidfire assay. It is filed as biochemical. As to conditions: human KMO-membranes from Sf9 cells, 10 μM Kynurenine, 200 μM NADPH, 3-HK detected by MS. The method, then:
pFastbac1 GST-KMO was transposed into the baculovirus genome using the BAC-to-BAC technology (Invitrogen) and bacmid DNA was prepared and transfected into Spodoptera frugiperda (Sf9) cells using Cellfectin II (Invitrogen).
Cells were harvested after 48 hours and disrupted by blending in 50 mM Hepes, pH 7.4, 1 mM EDTA buffer containing protease inhibitors. A low speed spin (400 g) was used to remove cell debris, followed by a high speed spin (75 000 g) to pellet the membranes. The membranes were purified in a discontinuous sucrose density gradient by re-suspending in 10% (w/v) sucrose and layering over 40% (w/v) sucrose, both in the above buffer. This was centrifuged at 150 000 g and the purified membranes were taken from the interface, collected by centrifugation at 100 000 g, resuspended in buffer and aliquoted for storage at −80° C.
11 point, 3-fold serial dilutions of test compounds were prepared in DMSO and 100 nL of these solutions were dispensed into 384-well V-base polypropylene plates (Greiner Bio-one, Stonehouse, UK) using an Echo 555 acoustic dispenser (Labcyte, Sunnyvale, Calif.). This gave a final assay concentration range between 100 μM and 1.7 nM in 10 μL final assay volume (see below). 100 nL DMSO was dispensed into columns 6 and 18 for high and low controls, respectively, with prior inactivation of the enzyme in column 18 by pre-dispense of 30 μL of 0.5% (v/v) TFA. […]

T1 sequence (O15229 whole entry): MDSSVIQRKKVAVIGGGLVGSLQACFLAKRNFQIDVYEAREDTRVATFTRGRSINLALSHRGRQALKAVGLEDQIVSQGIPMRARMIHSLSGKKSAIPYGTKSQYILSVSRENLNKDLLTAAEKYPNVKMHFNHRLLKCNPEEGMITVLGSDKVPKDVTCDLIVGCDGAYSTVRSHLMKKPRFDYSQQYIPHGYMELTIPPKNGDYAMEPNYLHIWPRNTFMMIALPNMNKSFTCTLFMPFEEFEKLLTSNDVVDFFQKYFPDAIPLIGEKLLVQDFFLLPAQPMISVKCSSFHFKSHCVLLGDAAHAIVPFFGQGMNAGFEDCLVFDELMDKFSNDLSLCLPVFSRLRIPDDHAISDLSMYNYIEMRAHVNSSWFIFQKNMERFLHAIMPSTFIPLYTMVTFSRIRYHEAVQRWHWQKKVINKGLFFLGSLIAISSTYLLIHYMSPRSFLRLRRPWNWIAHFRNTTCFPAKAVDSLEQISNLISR

Consider `Cc1cc2oc(=O)n(CCC(=O)O)c2cc1Cl` [Example 1, 3-(5-Chloro-6-methyl-2-oxobenzo[d]oxazol-3(2H)-yl)propanoic Acid], for which the “median pIC50” value stood at 7.9.
